# Test results published in patent US20210147481A1, “PEPTIDE-BASED INHIBITORS OF MARK FAMILY PROTEINS” (Ohio Universtiy, priority 2017, published 2021).
# Like-named read-outs stand apart in the source and are kept apart here. Peptide text beside a SMILES is read from it. * marks the point of attachment. 5FAM = O=C1OC2(c3ccc(O)cc3Oc3cc(O)ccc32)c2ccc(C(=O)*)cc21
# Tests used:
# [1] = tested on: rat primary cortical neurons
# MARK2 [2] = target: MARK2 (Homo sapiens, UniProt Q7KZI7); assay: Antibody-linked fluorescence polarization assay of tR1 phosphorylation by MARK2; format: biochemical; details: 10 μM FlutR1, MARK2, ATP, antibody versus absence of MARK2, ATP, or antibody
# Chain of MARK2 (Homo sapiens, UniProt Q7KZI7) (Q7KZI7 whole entry): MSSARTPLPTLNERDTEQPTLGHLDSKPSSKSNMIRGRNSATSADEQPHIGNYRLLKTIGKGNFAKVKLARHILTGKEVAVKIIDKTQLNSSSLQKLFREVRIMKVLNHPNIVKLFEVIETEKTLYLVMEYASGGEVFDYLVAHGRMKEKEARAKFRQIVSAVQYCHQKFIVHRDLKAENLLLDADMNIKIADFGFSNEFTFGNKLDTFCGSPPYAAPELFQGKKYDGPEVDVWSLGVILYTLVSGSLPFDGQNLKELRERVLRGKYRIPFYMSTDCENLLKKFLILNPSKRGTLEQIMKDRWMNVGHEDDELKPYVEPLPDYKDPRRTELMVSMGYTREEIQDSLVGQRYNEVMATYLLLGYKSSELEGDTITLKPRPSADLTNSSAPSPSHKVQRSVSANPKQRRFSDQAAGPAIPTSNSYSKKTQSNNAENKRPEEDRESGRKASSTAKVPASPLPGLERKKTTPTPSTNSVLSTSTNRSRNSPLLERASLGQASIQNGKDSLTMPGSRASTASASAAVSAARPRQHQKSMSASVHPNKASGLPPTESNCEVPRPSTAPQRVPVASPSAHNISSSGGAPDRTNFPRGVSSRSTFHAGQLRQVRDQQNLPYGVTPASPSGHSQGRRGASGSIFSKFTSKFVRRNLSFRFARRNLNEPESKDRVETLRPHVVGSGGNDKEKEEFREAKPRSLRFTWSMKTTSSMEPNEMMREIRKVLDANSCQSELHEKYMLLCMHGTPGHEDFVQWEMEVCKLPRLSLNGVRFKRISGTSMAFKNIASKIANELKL
# Method: The ability for MARK2 to phosphorylate tR1 in vitro was further validated by incubating ^FlutR1 peptides with MARK2 and ATP and monitoring the fluorescence polarization of the solution following addition of antibodies specific for hTau pSer262 (FIG. 6C). In these experiments, ^FlutR1 peptides and MARK2 were incubated with and without ATP for 60 minutes at 32° C. in phosphorylation buffer. Following incubation, antibodies specific for hTau pSer262 were added to the reaction and allowed to incubate for an additional 60 minutes at room temperature. Due to the slower tumbling rate of an antibody-linked (and presumably phosphorylated) ^FlutR1 peptide, it is believed that the fluorescence polarization of the phosphorylated tR1 peptide would be higher than that of its un-phosphorylated counterpart.
# Analysis of the activity of MARK2 proteins was performed in 60-μL phosphorylation buffer (50 mM Tris-HCl, pH 8.0, 5 mM MgCl2, 2 mM EGTA, 0.5 mM DTT, 0.5 mM benzamidine HCl, 0.5 mM PMSF) containing 100 μM ATP, 10 μM of ^FlutR1, and 10 nM MARK2. The reaction mixture was incubated at 32° C. for 1 hour. […] Fluorescence polarization was then measured using a SpectraMax M5e multi-mode plate reader (Molecular Devices, Sunnyvale, Calif.) in 384-well plates (#3575, Corning, Corning, N.Y.). […]
# MARK2 [3] = target: MARK2 (Rattus norvegicus, UniProt O08679); assay: Immunofluorescence of PAO-induced MARK2-mediated tau Ser262 phosphorylation in neurons; format: cell-based
# Chain of MARK2 (Rattus norvegicus, UniProt O08679) (O08679 whole entry): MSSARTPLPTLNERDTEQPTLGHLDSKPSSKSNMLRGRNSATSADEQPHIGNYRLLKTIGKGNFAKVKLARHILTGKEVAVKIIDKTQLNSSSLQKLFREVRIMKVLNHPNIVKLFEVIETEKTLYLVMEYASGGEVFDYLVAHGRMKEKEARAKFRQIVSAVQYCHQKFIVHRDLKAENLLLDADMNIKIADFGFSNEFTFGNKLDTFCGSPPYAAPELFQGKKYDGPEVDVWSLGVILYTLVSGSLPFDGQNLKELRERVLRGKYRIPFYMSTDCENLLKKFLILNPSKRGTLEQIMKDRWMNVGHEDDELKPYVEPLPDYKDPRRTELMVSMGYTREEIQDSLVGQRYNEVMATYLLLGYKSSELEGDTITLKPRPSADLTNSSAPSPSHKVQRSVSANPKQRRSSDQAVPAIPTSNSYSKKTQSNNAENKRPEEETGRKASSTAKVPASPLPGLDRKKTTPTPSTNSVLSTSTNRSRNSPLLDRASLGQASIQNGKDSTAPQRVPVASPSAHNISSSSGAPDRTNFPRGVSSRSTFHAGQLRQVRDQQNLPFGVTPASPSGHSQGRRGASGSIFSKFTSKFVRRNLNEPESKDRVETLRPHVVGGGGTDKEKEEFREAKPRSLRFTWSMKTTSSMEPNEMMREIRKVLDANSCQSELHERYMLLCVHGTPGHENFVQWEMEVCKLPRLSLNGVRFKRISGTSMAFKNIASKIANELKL
compound,measurement,setting,value
CC[C@H](C)[C@H](NC(=O)[C@H](CCCCN)NC(=O)[C@H](CO)NC(=O)[C@H](CCCCN)NC(=O)[C@@H](NC(=O)[C@H](CC(N)=O)NC(=O)c1ccc2c(c1)C(=O)OC21c2ccc(O)cc2Oc2cc(O)ccc21)C(C)C)C(=O)NCC(=O)N[C@@H](CO)C(=O)N[C@H](C(=O)N[C@@H](CCC(=O)O)C(=O)N[C@@H](CC(N)=O)C(=O)N[C@@H](CC(C)C)C(=O)N[C@@H](CCCCN)C(N)=O)[C@@H](C)O [^FlutR1] (5FAM-NVKSKIGSTENLK-NH2),intracellular uptake (fluorescence),"[1]; 10 μM FlutR1 alone, 4 hours",distinct fluorescent puncta within the cell body and neurites
same,intracellular distribution (fluorescence),[1]; 10 μM FlutR1 with 50 nM Baf,no fluorescent puncta following treatment and diffuse green fluorescence within the cell soma
same,intracellular uptake (fluorescence),[1]; 10 μM FlutR1 with 5 μM PAO,did not seem to affect the uptake
same,intracellular distribution (fluorescence),[1]; 10 μM FlutR1 with 100 μM CLQ,significant loss of discrete fluorescent puncta
same,intracellular uptake (fluorescence),[1]; 10 μM FlutR1 with 10 mM sodium azide,significant loss of fluorescent puncta within the cell body and neurites
same,fluorescence polarization after addition of hTau pSer262 antibody,MARK2 [2],polarization to be highest in solutions containing all reaction components
"CCN(CC)CCCC(C)Nc1ccnc2cc(Cl)ccc12 (centres unmarked) [chloroquine, reference compound]",effect of endosome disruptor alone on PAO-induced MARK2 mediated phosphorylation of tau,MARK2 [3],Neither bafilomycin A1 nor chloroquine treatments alone affected
"CO/C1=C\C(C)=C\[C@@H](C)[C@@H](O)[C@@H](C)C/C(C)=C/C=C/[C@H](OC)[C@@H]([C@@H](C)[C@@H](O)[C@H](C)[C@@]2(O)C[C@@H](O)[C@H](C)[C@@H](C(C)C)O2)OC1=O [bafilomycin A1, reference compound]",effect of endosome disruptor alone on PAO-induced MARK2 mediated phosphorylation of tau,"MARK2 [3]; without tR1, 5 μM PAO",Neither bafilomycin A1 nor chloroquine treatments alone affected
